The source of these data is ChEMBL document CHEMBL1127408, “Anti-AIDS agents. 15. Synthesis and anti-HIV activity of dihydroseselins and related analogs” (J Med Chem, 1994).

Broadly, the EC50 is the concentration needed to bring the measured effect to its halfway point. A higher EC50 goes with a less potent agent.

Data set [1] can be described thus: (§1) Tested for in vitro therapeutic index as the ratio of IC50 to EC50 in acutely infected H9 Lymphocytes. Type of data set: organism-based, Human immunodeficiency virus 1. The settings on record: human immunodeficiency virus 1, H9 lymphocytes acutely infected with HIV-1; read-out: TI.
Data set [2] relates to Human immunodeficiency virus 1. Put plainly: Anti-HIV activity in acutely infected H9 lymphocytes. Type of data set: functional, organism-based.
Data set [3] concerns Human immunodeficiency virus 1. The data set is described as §1. Type of data set: organism-based. Particulars: Human immunodeficiency virus 1.
The subject of the next data set is U-937. Put plainly: Compound was tested for anti-HIV activity in acutely infected U937. Type of data set: functional, cell-based. The settings on record: Homo sapiens.
A short description of data set [4]: Tested for in vitro therapeutic index as the ratio of IC50 to EC50 in acutely infected U937. It is filed as cell-based, U-937. The settings on record: human, acutely infected U937 cells; read-out: TI.
Data set [5] in a line: Tested for in vitro therapeutic index as the ratio of IC50 to EC50 in PBMCs. The settings on record: human, read-out: TI.

Consider `CC(=O)O[C@@H]1[C@H](OC(=O)CC(C)C)c2c(ccc3ccc(=O)oc23)OC1(C)C` [SUKSDORFIN], for which, in data set [1], the selectivity ratio was found to be 30.6. Moreover, the EC50 in data set [2] (Human immunodeficiency virus 1) was 2.6 µM.

Consider `CC(C)(C)c1ccc(C(=O)OC2c3c(ccc4ccc(=O)oc34)OC(C)(C)C2OC(=O)c2ccc(C(C)(C)C)cc2)cc1` (stereo not given), for which the selectivity ratio in data set [1] was over 2.2. The EC50 in data set [2] (Human immunodeficiency virus 1) was under 1.4 µM.

With `CC(C)[C@H]1CC[C@H](C)C[C@@H]1OC(=O)OC1c2c(ccc3ccc(=O)oc23)OC(C)(C)C1OC(=O)O[C@@H]1C[C@H](C)CC[C@H]1C(C)C` (stereo not given in full), in data set [1], the selectivity ratio was found to be 2.9. Moreover, the EC50 in data set [2] (Human immunodeficiency virus 1) was found to be 11.4 µM.

Take `CC(C)CC(=O)OC1c2c(ccc3ccc(=O)oc23)OC(C)(C)C1OC(=O)CC(C)C` (stereo in doubt; 9): the selectivity ratio in data set [1] came to 2. This compound also showed an EC50 in data set [2] of 7 µM.

On to `CC1(C)Oc2ccc3ccc(=O)oc3c2C(OC(=O)C23CCC(C)(C(=O)O2)C3(C)C)C1OC(=O)C12CCC(C)(C(=O)O1)C2(C)C` (stereo in doubt; 38), for which, in data set [1], the selectivity ratio was determined as 3. The compound also displayed a concentration giving a half-maximal response (EC50) in data set [2] (Human immunodeficiency virus 1) of 24.1 µM.

For `CC1(C)Oc2ccc3ccc(=O)oc3c2C(OC(=O)c2cccc(Cl)c2)C1OC1CCCCO1` (single isomer, unassigned), in data set [1], the selectivity ratio came out at 10. The same compound came in with an EC50 in data set [2] (Human immunodeficiency virus 1) of 8.3 µM.

As for `CC(C)CC(=O)OC1C(OC(=O)c2cccc(Cl)c2)c2c(ccc3ccc(=O)oc23)OC1(C)C` (stereo not given), the selectivity ratio in data set [1] is 1.4. Besides, the response in data set [2] (Human immunodeficiency virus 1) was half-maximal at 9.3 µM (EC50).

For `CC(C)=CC(=O)OC1c2c(ccc3ccc(=O)oc23)OC(C)(C)C1OC(=O)C=C(C)C` (stereo not given), in data set [1], the selectivity ratio was found to be 3.5. The compound also returned an EC50 in data set [2] (Human immunodeficiency virus 1) of 4.7 µM.

`CC(=O)OC1c2c(ccc3ccc(=O)oc23)OC(C)(C)C1OC(C)=O` (stereo in doubt; 37): in data set [3], the TI stood at 3. This compound also registered a 50% effective concentration (EC50) in data set [2] of 43 µM.

For the compound `CC1(C)Oc2ccc3ccc(=O)oc3c2[C@@H](OC(=O)C23CCC(C)(C(=O)O2)C3(C)C)[C@H]1OC(=O)C12CCC(C)(C(=O)O1)C2(C)C` (mixture of isomers; 16), the TI in data set [3] stood at 136719. The concentration giving a half-maximal response (EC50) in data set [2] turned out to be 4 µM; in the data set on U-937 it was 0.0021 µM. For the same compound, the selectivity ratio in data set [4] turned out to be 11700; in data set [5], 472.

As for `CC(=O)OC1C(N=[N+]=[N-])c2c(ccc3ccc(=O)oc23)OC1(C)C` (stereo not given), the selectivity ratio in data set [1] is 1. The compound also had an EC50 in data set [2] (Human immunodeficiency virus 1) of 116 µM.

For the compound `C/C=C(\C)C(=O)O[C@@H]1c2c(ccc3ccc(=O)oc23)OC(C)(C)[C@@H]1OC(C)=O` [PTERYXIN], the selectivity ratio in data set [1] turned out to be 4.5. In data set [2] (Human immunodeficiency virus 1), a half-maximal response (EC50) required 4.6 µM.

Regarding `CCC(C)C(=O)OC1c2c(ccc3ccc(=O)oc23)OC(C)(C)C1OC(=O)C(C)CC` (stereo not given), the selectivity ratio in data set [1] was found to be 14.4. For the same compound, in data set [2] (Human immunodeficiency virus 1), a half-maximal effect (EC50) was put at 7 µM.

Turning to `Cc1cn([C@H]2C[C@H](N=[N+]=[N-])[C@@H](CO)O2)c(=O)[nH]c1=O` [ZIDOVUDINE], in data set [1], the selectivity ratio was 12500. Moreover, in data set [2] (Human immunodeficiency virus 1), the half-maximal effective concentration (EC50) was 0.15 µM.

As to `CC(C)(C)CC(=O)O[C@@H]1c2c(ccc3ccc(=O)oc23)OC(C)(C)[C@@H]1OC(=O)CC(C)(C)C`, in data set [1], the selectivity ratio came to 2. The compound further showed a half-maximal effective concentration (EC50) in data set [2] (Human immunodeficiency virus 1) of 21.8 µM.

Turning to `CC1(C)Oc2ccc3ccc(=O)oc3c2C(OC(=O)C23CCC(C)(C(=O)O2)C3(C)C)C1OC(=O)C12CCC(C)(C(=O)O1)C2(C)C` (stereo in doubt; 39), the TI in data set [3] is recorded as over 5. Also, it took 32 µM to reach a half-maximal effect in data set [2] (EC50).

For the compound `CC(=O)OC1c2c(ccc3ccc(=O)oc23)OC(C)(C)C1OC(C)=O` (stereo in doubt; 8), the TI in data set [3] was 0.4. Besides, the 50% effective concentration (EC50) in data set [2] (Human immunodeficiency virus 1) was 69.4 µM.

Take `CC1(C)C=Cc2c(ccc3ccc(=O)oc23)O1` [SESALIN]: the selectivity ratio in data set [1] came out at 5. In data set [2] (Human immunodeficiency virus 1), this compound came in with an EC50 of 3.5 µM.

For the compound `CC(C)CC(=O)OC1c2c(ccc3ccc(=O)oc23)OC(C)(C)C1OC(=O)CC(C)C` (stereo in doubt; 42), in data set [3], the TI stood at 3. The same compound came in with a half-maximal effective concentration (EC50) in data set [2] of 20.9 µM.

Consider `CC(=O)OC1c2c(ccc3ccc(=O)oc23)OC(C)(C)C1OCc1ccccc1` (stereo not given), for which, in data set [1], the selectivity ratio is 2.3. The compound also displayed a concentration for a half-maximal effect (EC50) in data set [2] (Human immunodeficiency virus 1) of 38 µM.

Consider `CC1(C)Oc2ccc3ccc(=O)oc3c2C(O)C1OCc1ccccc1` (stereo not given), for which the selectivity ratio in data set [1] turned out to be 2.7. The compound further displayed an EC50 in data set [2] (Human immunodeficiency virus 1) of 43 µM.

As for `CC1(C)Oc2ccc3ccc(=O)oc3c2C(N=[N+]=[N-])C1O` (stereo not given), in data set [1], the selectivity ratio was 2.9. Also, in data set [2] (Human immunodeficiency virus 1), the response was half-maximal at 116 µM (EC50).

With `CC1(C)Oc2ccc3ccc(=O)oc3c2C(OC(=O)c2cccc(Cl)c2)C1O` (stereo not given), the selectivity ratio in data set [1] was determined as 2.4. In addition, it took 4.2 µM to reach a half-maximal effect in data set [2] (Human immunodeficiency virus 1) (EC50).

For the compound `CC1(C)Oc2ccc3ccc(=O)oc3c2[C@@H](OC(=O)C23CCC(C)(C(=O)O2)C3(C)C)[C@H]1OC(=O)C12CCC(C)(C(=O)O1)C2(C)C` (mixture of isomers; 17), the TI in data set [3] stood at 1.1. Also, the concentration for a half-maximal effect (EC50) in data set [2] was found to be 145 µM.

As to `CC1(C)Oc2ccc3ccc(=O)oc3c2C(OC(=O)c2cccc(Cl)c2)C1OCc1ccccc1` (stereo not given), in data set [1], the selectivity ratio turned out to be 5. For the same compound, a half-maximal effect in data set [2] (Human immunodeficiency virus 1) (EC50) was put at 3.1 µM.

Take `COC1C(OC(=O)c2cccc(Cl)c2)c2c(ccc3ccc(=O)oc23)OC1(C)C` (stereo not given): in data set [1], the selectivity ratio was 0.34. In addition, the EC50 in data set [2] (Human immunodeficiency virus 1) amounted to 241 µM.
